Experimental findings from ChEMBL document CHEMBL1142139, “In vitro-clinical correlations for amphotericin B susceptibility in AIDS-associated cryptococcal meningitis” (2007) are described below.

The test concerns Cryptococcus neoformans. Put plainly: Antimicrobial activity against Cryptococcus neoformans isolates in CSF from meningitis patients after 14 day iv treatment. Format: functional.

`C[C@@H]1[C@H](O)[C@@H](C)/C=C/C=C/C=C/C=C/C=C/C=C/C=C/[C@H](O[C@@H]2O[C@H](C)[C@@H](O)[C@H](N)[C@@H]2O)C[C@@H]2O[C@](O)(C[C@@H](O)C[C@@H](O)[C@H](O)CC[C@@H](O)C[C@@H](O)CC(=O)O[C@H]1C)C[C@H](O)[C@H]2C(=O)O` [AMPHOTERICIN B] yielded a CFU/ml of 0.
